ChEMBL document CHEMBL3132769, “Fragment growing to retain or alter the selectivity of anchored kinase hinge-binding fragments” (Medchemcomm, 2014)

What was measured:
[1] = target: T1, Serine/threonine-protein kinase Sgk3 (Homo sapiens) (UniProt Q96BR1); test: Inhibition of human full length SGK3 expressed in baculovirus assessed as substrate phosphorylation using fluorescence-labelled peptides as substrate at 0.2 uM after 90 mins by microfluidic peptide phosphorylation assay
T1 sequence (whole entry): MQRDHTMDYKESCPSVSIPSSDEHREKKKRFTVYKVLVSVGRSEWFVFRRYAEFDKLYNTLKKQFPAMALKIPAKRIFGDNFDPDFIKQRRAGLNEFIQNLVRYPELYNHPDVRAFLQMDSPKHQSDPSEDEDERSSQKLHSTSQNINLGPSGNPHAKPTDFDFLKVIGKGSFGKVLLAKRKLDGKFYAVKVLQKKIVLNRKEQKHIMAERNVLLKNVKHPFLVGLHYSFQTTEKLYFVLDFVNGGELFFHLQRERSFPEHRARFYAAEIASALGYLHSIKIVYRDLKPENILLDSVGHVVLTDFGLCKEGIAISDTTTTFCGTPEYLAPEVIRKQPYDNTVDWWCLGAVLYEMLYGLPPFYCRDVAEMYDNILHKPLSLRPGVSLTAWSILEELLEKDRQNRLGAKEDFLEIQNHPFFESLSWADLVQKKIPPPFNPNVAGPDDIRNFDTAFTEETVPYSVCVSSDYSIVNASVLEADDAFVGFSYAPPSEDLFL

[2] = target: Mitogen-activated protein kinase 1 (Homo sapiens) (UniProt P28482); test: Inhibition of human full length ERK2 expressed in Escherichia coli cell assessed as substrate phosphorylation using fluorescence-labelled peptides as substrate at 0.2 uM after 90 mins by microfluidic peptide phosphorylation assay
[3] = target: T2, Mitogen-activated protein kinase 12 (Homo sapiens) (UniProt P53778); test: Inhibition of human full length p38 gamma expressed in Escherichia coli cell assessed as substrate phosphorylation using fluorescence-labelled peptides as substrate at 2 uM after 90 mins by microfluidic peptide phosphorylation assay
T2 sequence (whole entry): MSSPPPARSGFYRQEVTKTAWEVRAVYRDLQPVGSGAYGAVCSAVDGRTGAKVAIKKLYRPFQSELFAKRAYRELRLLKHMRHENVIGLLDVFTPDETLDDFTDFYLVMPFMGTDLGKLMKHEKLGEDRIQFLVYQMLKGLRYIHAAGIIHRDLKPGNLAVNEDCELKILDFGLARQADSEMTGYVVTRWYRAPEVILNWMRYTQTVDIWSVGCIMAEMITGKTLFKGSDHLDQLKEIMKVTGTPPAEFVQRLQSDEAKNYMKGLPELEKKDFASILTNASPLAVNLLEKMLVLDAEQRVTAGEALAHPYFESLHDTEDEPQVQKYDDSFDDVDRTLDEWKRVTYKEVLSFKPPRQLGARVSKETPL

[4] = target: Mitogen-activated protein kinase 1 (Homo sapiens) (UniProt P28482); conditions: 0.1 uM
Description: Inhibition of human full length ERK2 expressed in Escherichia coli cell assessed as substrate phosphorylation using fluorescence-labelled peptides as substrate at 0.1 uM after 90 mins by microfluidic peptide phosphorylation assay

[5] = target: T3, Serine/threonine-protein kinase BRSK1 (Homo sapiens) (UniProt Q8TDC3); test: Inhibition of human full length BRSK1 expressed in baculovirus assessed as substrate phosphorylation using fluorescence-labelled peptides as substrate at 9 uM after 90 mins by microfluidic peptide phosphorylation assay
T3 sequence (whole entry): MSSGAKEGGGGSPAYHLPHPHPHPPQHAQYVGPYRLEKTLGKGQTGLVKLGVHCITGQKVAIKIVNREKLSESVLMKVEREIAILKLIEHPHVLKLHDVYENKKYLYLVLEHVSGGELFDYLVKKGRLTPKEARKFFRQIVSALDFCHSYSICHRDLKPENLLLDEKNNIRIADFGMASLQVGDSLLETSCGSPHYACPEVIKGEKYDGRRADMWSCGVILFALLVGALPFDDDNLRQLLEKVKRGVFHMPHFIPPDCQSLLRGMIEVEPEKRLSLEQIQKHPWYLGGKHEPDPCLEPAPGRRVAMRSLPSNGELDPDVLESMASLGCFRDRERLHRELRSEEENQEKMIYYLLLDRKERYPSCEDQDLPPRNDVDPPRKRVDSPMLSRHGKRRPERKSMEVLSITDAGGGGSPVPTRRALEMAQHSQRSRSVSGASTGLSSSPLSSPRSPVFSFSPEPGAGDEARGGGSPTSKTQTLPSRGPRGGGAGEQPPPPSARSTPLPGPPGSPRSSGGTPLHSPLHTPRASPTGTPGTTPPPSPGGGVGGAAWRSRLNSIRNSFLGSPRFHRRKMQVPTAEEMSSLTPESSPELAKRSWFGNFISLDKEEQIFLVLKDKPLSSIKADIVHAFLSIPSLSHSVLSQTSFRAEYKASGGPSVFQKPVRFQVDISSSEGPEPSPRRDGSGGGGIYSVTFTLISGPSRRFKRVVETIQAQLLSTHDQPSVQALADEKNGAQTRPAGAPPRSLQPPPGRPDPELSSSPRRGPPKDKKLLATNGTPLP

[6] = target: T4, Protein kinase C epsilon type (Homo sapiens) (UniProt Q02156); test: Inhibition of human truncated PKC epsilon expressed in baculovirus assessed as substrate phosphorylation using fluorescence-labelled peptides as substrate at 9 uM after 90 mins by microfluidic peptide phosphorylation assay
T4 sequence (whole entry): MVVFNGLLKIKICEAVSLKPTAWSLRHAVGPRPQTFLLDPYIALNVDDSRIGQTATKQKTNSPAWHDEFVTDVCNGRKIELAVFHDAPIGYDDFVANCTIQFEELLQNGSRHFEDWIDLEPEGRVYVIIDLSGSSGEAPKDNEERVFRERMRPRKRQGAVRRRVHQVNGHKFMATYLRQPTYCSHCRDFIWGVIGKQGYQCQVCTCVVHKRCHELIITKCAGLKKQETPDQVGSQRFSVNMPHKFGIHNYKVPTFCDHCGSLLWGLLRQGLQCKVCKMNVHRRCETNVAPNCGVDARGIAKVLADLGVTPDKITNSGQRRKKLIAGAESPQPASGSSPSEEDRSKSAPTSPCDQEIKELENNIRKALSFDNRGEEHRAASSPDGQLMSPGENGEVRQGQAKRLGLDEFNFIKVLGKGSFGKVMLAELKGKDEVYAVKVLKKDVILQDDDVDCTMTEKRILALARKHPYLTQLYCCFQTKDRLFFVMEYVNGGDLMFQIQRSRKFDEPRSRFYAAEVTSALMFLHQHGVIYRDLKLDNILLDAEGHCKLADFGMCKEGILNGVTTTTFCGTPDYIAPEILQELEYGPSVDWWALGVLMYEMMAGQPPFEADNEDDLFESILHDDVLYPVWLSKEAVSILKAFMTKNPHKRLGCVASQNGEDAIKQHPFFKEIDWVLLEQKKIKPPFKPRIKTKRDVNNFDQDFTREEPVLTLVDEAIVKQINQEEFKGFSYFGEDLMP

Chain of Mitogen-activated protein kinase 1 (Homo sapiens) (P28482 whole entry): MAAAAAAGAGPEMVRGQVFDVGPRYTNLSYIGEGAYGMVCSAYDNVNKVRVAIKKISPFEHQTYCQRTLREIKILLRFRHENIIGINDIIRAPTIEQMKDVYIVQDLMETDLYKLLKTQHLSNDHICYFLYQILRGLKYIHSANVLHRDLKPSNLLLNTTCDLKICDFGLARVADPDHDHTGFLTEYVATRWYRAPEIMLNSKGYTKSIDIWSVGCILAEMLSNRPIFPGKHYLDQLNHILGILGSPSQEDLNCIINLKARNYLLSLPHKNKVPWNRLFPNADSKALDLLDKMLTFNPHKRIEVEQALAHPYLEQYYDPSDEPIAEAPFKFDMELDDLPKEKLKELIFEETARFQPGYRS

Clc1ccc(C2(c3ccc(-c4ncnc5[nH]cnc45)cc3)CCNCC2)cc1
inhibition [1]: 41%
inhibition [2]: 7%

NC1CCN(c2ncnc3[nH]ccc23)CC1
inhibition [3]: 1.5%

C[C@H](CN(C)C)Oc1nc(Nc2cc3cccc(Cl)c3cn2)cnc1C#N
inhibition [4]: 0%

NCC1CN(c2ncnc3[nH]c4cnccc4c23)CCO1 (stereo unspecified)
inhibition [5]: 29.5%
inhibition [6]: 14.5%
